Results published in the NIST ThermoML archive (doi:10.1016/j.tca.2014.07.022).
± gives the expanded uncertainty stated by the source.

Experiments:
[1] = 100 kPa, Liquid; for viscosity: Concentric cylinders viscometry; for mass density: Vibrating tube method
[2] = xn = mol fraction of the nth substance listed; conditions: 100 kPa, Liquid; for viscosity: Concentric cylinders viscometry; for mass density: Vibrating tube method

SMILES	viscosity ([1]; 293.15 K) [mPa·s]	mass density ([1]; 293.15 K) [kg/m3]	viscosity ([1]; 298.15 K) [mPa·s]	mass density ([1]; 298.15 K) [kg/m3]	viscosity ([1]; 303.15 K) [mPa·s]	mass density ([1]; 303.15 K) [kg/m3]	viscosity ([1]; 308.15 K) [mPa·s]	mass density ([1]; 308.15 K) [kg/m3]	viscosity ([1]; 313.15 K) [mPa·s]	mass density ([1]; 313.15 K) [kg/m3]	viscosity ([1]; 318.15 K) [mPa·s]	mass density ([1]; 318.15 K) [kg/m3]	viscosity ([1]; 323.15 K) [mPa·s]	mass density ([1]; 323.15 K) [kg/m3]	also measured
CC(C)O [propan-2-ol]	2.417 ± 0.051	785.4 ± 0.3	2.083 ± 0.044	781.1 ± 0.3	1.8 ± 0.038	776.8 ± 0.3	1.561 ± 0.033	772.4 ± 0.3	1.359 ± 0.029	768 ± 0.3	1.189 ± 0.025	763.4 ± 0.3	1.047 ± 0.023	758.8 ± 0.3	
CCC(C)O (stereo not drawn) [butan-2-ol]	3.67 ± 0.077	806.7 ± 0.3	3.04 ± 0.064	802.7 ± 0.3	2.54 ± 0.053	798.4 ± 0.3	2.128 ± 0.045	794.1 ± 0.3	1.805 ± 0.038	789.8 ± 0.3	1.538 ± 0.033	785.2 ± 0.3	1.325 ± 0.028	780.6 ± 0.3	
CC(C)O [propan-2-ol] + CC(=O)CC(C)C															viscosity ([2]; 293.15 K, x2 = 0): 2.417 ± 0.051 mPa·s; mass density ([2]; 293.15 K, x2 = 0): 785.4 ± 0.3 kg/m3; viscosity ([2]; 298.15 K, x2 = 0): 2.083 ± 0.044 mPa·s; mass density ([2]; 298.15 K, x2 = 0): 781.1 ± 0.3 kg/m3; viscosity ([2]; 303.15 K, x2 = 0): 1.8 ± 0.038 mPa·s; mass density ([2]; 303.15 K, x2 = 0): 776.8 ± 0.3 kg/m3; viscosity ([2]; 308.15 K, x2 = 0): 1.561 ± 0.033 mPa·s; mass density ([2]; 308.15 K, x2 = 0): 772.4 ± 0.3 kg/m3; viscosity ([2]; 313.15 K, x2 = 0): 1.359 ± 0.029 mPa·s; mass density ([2]; 313.15 K, x2 = 0): 768 ± 0.3 kg/m3; viscosity ([2]; 318.15 K, x2 = 0): 1.189 ± 0.025 mPa·s; mass density ([2]; 318.15 K, x2 = 0): 763.4 ± 0.3 kg/m3; viscosity ([2]; 323.15 K, x2 = 0): 1.047 ± 0.023 mPa·s; mass density ([2]; 323.15 K, x2 = 0): 758.8 ± 0.3 kg/m3
CC(=O)CC(C)C [4-methylpentan-2-one] + CCCC(C)O															viscosity ([2]; 293.15 K, x1 = 1): 0.588 ± 0.013 mPa·s; mass density ([2]; 293.15 K, x1 = 1): 800.8 ± 0.3 kg/m3; viscosity ([2]; 298.15 K, x1 = 1): 0.554 ± 0.013 mPa·s; mass density ([2]; 298.15 K, x1 = 1): 796.1 ± 0.3 kg/m3; viscosity ([2]; 303.15 K, x1 = 1): 0.523 ± 0.012 mPa·s; mass density ([2]; 303.15 K, x1 = 1): 791.6 ± 0.3 kg/m3; viscosity ([2]; 308.15 K, x1 = 1): 0.493 ± 0.011 mPa·s; mass density ([2]; 308.15 K, x1 = 1): 786.9 ± 0.3 kg/m3; viscosity ([2]; 313.15 K, x1 = 1): 0.463 ± 0.011 mPa·s; mass density ([2]; 313.15 K, x1 = 1): 782.3 ± 0.3 kg/m3; viscosity ([2]; 318.15 K, x1 = 1): 0.437 ± 0.01 mPa·s; mass density ([2]; 318.15 K, x1 = 1): 777.6 ± 0.3 kg/m3; viscosity ([2]; 323.15 K, x1 = 1): 0.41 ± 0.01 mPa·s; mass density ([2]; 323.15 K, x1 = 1): 773 ± 0.3 kg/m3
CCCC(C)O (stereo not drawn) [pentan-2-ol]	3.974 ± 0.083	809.3 ± 0.3	3.277 ± 0.069	805.3 ± 0.3	2.717 ± 0.057	801.2 ± 0.3	2.282 ± 0.048	797 ± 0.3	1.931 ± 0.041	792.7 ± 0.3	1.647 ± 0.035	788.4 ± 0.3	1.419 ± 0.03	784 ± 0.3	
CCC(C)O (stereo not drawn) [butan-2-ol] + CC(=O)CC(C)C															viscosity ([2]; 293.15 K, x2 = 0): 3.67 ± 0.077 mPa·s; mass density ([2]; 293.15 K, x2 = 0): 806.7 ± 0.3 kg/m3; viscosity ([2]; 298.15 K, x2 = 0): 3.04 ± 0.064 mPa·s; mass density ([2]; 298.15 K, x2 = 0): 802.7 ± 0.3 kg/m3; viscosity ([2]; 303.15 K, x2 = 0): 2.54 ± 0.053 mPa·s; mass density ([2]; 303.15 K, x2 = 0): 798.4 ± 0.3 kg/m3; viscosity ([2]; 308.15 K, x2 = 0): 2.128 ± 0.045 mPa·s; mass density ([2]; 308.15 K, x2 = 0): 794.1 ± 0.3 kg/m3; viscosity ([2]; 313.15 K, x2 = 0): 1.805 ± 0.038 mPa·s; mass density ([2]; 313.15 K, x2 = 0): 789.8 ± 0.3 kg/m3; viscosity ([2]; 318.15 K, x2 = 0): 1.538 ± 0.033 mPa·s; mass density ([2]; 318.15 K, x2 = 0): 785.2 ± 0.3 kg/m3; viscosity ([2]; 323.15 K, x2 = 0): 1.325 ± 0.028 mPa·s; mass density ([2]; 323.15 K, x2 = 0): 780.6 ± 0.3 kg/m3
CC(=O)CC(C)C [4-methylpentan-2-one]	0.588 ± 0.013	800.8 ± 0.3	0.554 ± 0.013	796.1 ± 0.3	0.523 ± 0.012	791.6 ± 0.3	0.493 ± 0.011	786.9 ± 0.3	0.463 ± 0.011	782.3 ± 0.3	0.437 ± 0.01	777.6 ± 0.3	0.41 ± 0.01	773 ± 0.3	
